Measured values from patent publication US12527776B2, “Treatment of ciliopathies using inhibitors of glucosylceramide synthase (GCS)” (GENZYME CORPORATION, priority 2019, dated 2026).

How the values were obtained:
Type in all cases: in vivo, human
[1] = Phase 1 studies: safety and tolerability; conditions: multiple ascending dose study, vs placebo, any dose
Experimental: In all studies, safety profile was assessed by monitoring treatment-emergent adverse events (TEAEs) through 10 days after last dose of study medication, including serious adverse events [SAEs]), ECG monitoring, laboratory values, and physical examinations.

[2] = Phase 1 Study 1 Part 2: PK with and without a high-fat meal; conditions: 5 mg single oral dose
Text: (§1) Study 1 was a 2-part single-center trial in healthy adult male volunteers.
Part 1 of the study enrolled and randomized 55 healthy men (placebo, n=14; 2-, 5-, 15, 25-, 50, and 100-mg doses, n=6 each; 150-mg dose, n=5). Eight healthy men participated in Part 2.
After a 7-day washout period, participants were crossed over to the other condition.

[3] = Phase 1 Study 1 Part 1: ascending single-dose pharmacokinetics in healthy volunteers
Text: Compound 2 is also known as venglustat.
as §1
Part 1 of the study enrolled and randomized 55 healthy men (placebo, n=14; 2-, 5-, 15, 25-, 50, and 100-mg doses, n=6 each; 150-mg dose, n=5). Eight healthy men participated in Part 2. […]

[4] = test system: plasma GL-1, GL-3, and GM3 concentrations; assay: Phase 1 Study 2: pharmacodynamic endpoints (plasma GL-1, GL-3, GM3)
Experimental: The study enrolled and randomized 36 healthy adults (19 men and 17 women) (n=9 each to group).
Pharmacodynamic endpoints (plasma GL-1, GL-3, and GM3 concentrations) were assessed on Days 1-5, 8, 11, 13, and 14, at 0 hours […]; and on Day 15, at 24 hours after the Day 14 dose.

[5] = across the 3 dose groups (5, 10, 20 mg once daily)

SMILES: CC(C)(NC(=O)O[C@@H]1CN2CCC1CC2)c1csc(-c2ccc(F)cc2)n1 [Compound 2, (S)-quinuclidin-3-yl 2-(2-(4-fluorophenyl)thiazol-4-yl)propan-2-ylcarbamate]
- ECG parameters [1]: no ECG parameters changed statistically significantly
- effect of high-fat meal on exposure compared with fasting [2]: no effect
- CL/F, Geometric mean ([3]; single oral dose 2 mg): 6.3 L/h
- CL/F, Mean ([3]; single oral dose 2 mg): 6.43 L/h
- CL/F, Geometric mean ([3]; single oral dose 5 mg): 5.8 L/h
- CL/F, Mean ([3]; single oral dose 5 mg): 5.86 L/h
- CL/F, Geometric mean ([3]; single oral dose 15 mg): 5.6 L/h
- CL/F, Mean ([3]; single oral dose 15 mg): 5.85 L/h
- CL/F, Geometric mean ([3]; single oral dose 25 mg): 5.0 L/h
- CL/F, Mean ([3]; single oral dose 25 mg): 5.18 L/h
- CL/F, Geometric mean ([3]; single oral dose 50 mg): 5.5 L/h
- CL/F, Mean ([3]; single oral dose 50 mg): 5.75 L/h
- CL/F, Geometric mean ([3]; single oral dose 100 mg): 5.3 L/h
- CL/F, Mean ([3]; single oral dose 100 mg): 5.38 L/h
- CL/F, Geometric mean ([3]; single oral dose 150 mg): 5.6 L/h
- CL/F, Mean ([3]; single oral dose 150 mg): 5.80 L/h
- median time of maximal plasma concentration (Cmax) ([3]; single oral doses of 2 to 150 mg): 3 to 5.5 h
- Mean estimated plasma GL-1 reductions from baseline attributable to Ctrough ([4]; 5 mg group, Ctrough 19.0 ng/mL): 67.0%
- Mean estimated plasma GL-1 reductions from baseline attributable to Ctrough ([4]; 10 mg group, Ctrough 47.5 ng/mL): 74.4%
- Mean estimated plasma GL-1 reductions from baseline attributable to Ctrough ([4]; 20 mg group, Ctrough 69.9 ng/mL): 76.3%
- subjects with GL-1 below LLOQ ([4]; Day 15, 5 mg group (n=9)): 3 subjects
- subjects with GL-3 below LLOQ ([4]; Day 15, 5 mg group (n=9)): 9 subjects
- Mean calculated GL-1 reductions from baseline ([4]; Day 15, 5 mg once daily): 41.9%
- subjects with GL-1 below LLOQ ([4]; Day 15, 10 mg group (n=9)): 5 subjects
- subjects with GL-3 below LLOQ ([4]; Day 15, 10 mg group (n=9)): 7 subjects
- subjects with GM3 below LLOQ ([4]; Day 15, 10 mg group (n=9)): 1 subjects
- Mean calculated GL-1 reductions from baseline ([4]; Day 15, 10 mg once daily): 69.6%
- subjects with GL-1 below LLOQ ([4]; Day 15, 20 mg group (n=9)): 9 subjects
- subjects with GL-3 below LLOQ ([4]; Day 15, 20 mg group (n=9)): 9 subjects
- subjects with GM3 below LLOQ ([4]; Day 15, 20 mg group (n=9)): 2 subjects
- Mean calculated GL-1 reductions from baseline ([4]; Day 15, 20 mg once daily): 74.6%
- plasma GL-1 levels vs baseline [4, 5]: decreased from baseline time- and dose-dependently
- plasma GM3 levels vs baseline [4, 5]: decreased from baseline time- and dose-dependently
- Day on which maximal sustained GM3 decreases started ([4]; all dose groups): 13 days
